Data from ChEMBL document CHEMBL1144862, “A mechanism for substrate-Induced formation of 6-hydroxyflavin mononucleotide catalyzed by C30A trimethylamine dehydrogenase” (Bioorg Med Chem Lett, 2003).

Assay: Kcat value was determined
Assay type: ADME

With `Cc1cc2c(nc3c(=O)[nH]c(=O)nc-3n2C[C@@H](O)[C@@H](O)[C@@H](O)COP(=O)(O)O)c(O)c1C` the k cat was < 2.
